From ChEMBL document CHEMBL1128103, “Thromboxane modulating agents. 1. Design of 1-[(arylsulfonyl)amino] alkylindole derivatives as dual thromboxane synthase inhibitor/thromboxane receptor antagonists” (Bioorg Med Chem Lett, 1995) come the findings set out here.

Each structure is given as a SMILES string. Where only a bound is given, the exact number is not on record here.

Assay [1] deals with T1, Thromboxane A2 receptor (Rattus norvegicus, UniProt P34978).
T1 sequence (P34978 whole entry): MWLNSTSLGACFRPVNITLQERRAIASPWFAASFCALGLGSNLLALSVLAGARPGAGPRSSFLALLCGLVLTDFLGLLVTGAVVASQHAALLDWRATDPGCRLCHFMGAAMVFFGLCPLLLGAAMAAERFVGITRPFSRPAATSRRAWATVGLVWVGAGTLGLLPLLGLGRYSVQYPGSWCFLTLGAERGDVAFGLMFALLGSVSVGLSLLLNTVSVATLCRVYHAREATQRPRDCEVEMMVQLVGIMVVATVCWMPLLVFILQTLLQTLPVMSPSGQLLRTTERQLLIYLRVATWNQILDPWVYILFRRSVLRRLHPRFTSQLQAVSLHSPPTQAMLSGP
The assay can be described thus: Compound was tested in vitro for Thromboxane A2 receptor antagonism by inhibiting contraction of rat aorta induced by the stable thromboxane agonist U-46,619; […]. The class given is functional, tissue-based. As to conditions: read-out: pA2 (converted).

The target of assay [2] is T2, Thromboxane-A synthase (Homo sapiens, UniProt P24557).
T2 sequence (P24557 whole entry): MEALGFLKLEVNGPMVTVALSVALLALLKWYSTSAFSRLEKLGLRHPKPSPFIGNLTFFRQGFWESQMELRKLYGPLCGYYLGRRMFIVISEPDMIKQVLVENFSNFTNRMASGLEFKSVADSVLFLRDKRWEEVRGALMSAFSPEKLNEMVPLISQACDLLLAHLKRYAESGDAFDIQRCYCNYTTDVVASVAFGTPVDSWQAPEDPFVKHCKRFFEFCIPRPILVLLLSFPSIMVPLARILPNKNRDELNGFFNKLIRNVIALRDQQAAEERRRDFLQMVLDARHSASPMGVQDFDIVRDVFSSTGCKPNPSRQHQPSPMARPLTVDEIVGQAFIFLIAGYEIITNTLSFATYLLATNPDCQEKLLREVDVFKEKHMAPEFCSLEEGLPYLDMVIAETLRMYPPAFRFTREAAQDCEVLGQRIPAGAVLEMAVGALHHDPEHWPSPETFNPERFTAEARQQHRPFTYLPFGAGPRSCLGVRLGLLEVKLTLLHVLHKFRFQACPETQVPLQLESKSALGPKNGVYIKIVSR
The assay can be described thus: Compound was tested for the ability to inhibit human platelets microsomal Thromboxane A2 synthase.

The target in assay [3] is T1, Thromboxane A2 receptor. Nature of the assay: Compound was tested in vitro for Thromboxane A2 receptor antagonism by inhibiting contraction of rat aorta induced by the stable thromboxane agonist U-46,619. As to conditions: read-out: pA2 (converted). The class given is functional, tissue-based.
Assay [4] has as its target T1, Thromboxane A2 receptor. Nature of the assay: Compound was tested in vitro for thromboxane A2 receptor antagonism by inhibiting contraction of rat aorta induced by the stable thromboxane agonist U-46,619. To be noted: read-out: pA2 (converted). The class given is functional, tissue-based.
Assay [5] concerns the target T3, Thromboxane-A synthase (Homo sapiens) (UniProt P24557).
T3 sequence (whole entry): T2 sequence (P24557 whole entry)
Nature of the assay: Compound was tested for the ability to inhibit human platelets microsomal Thromboxane A2 synthase at 1 uM concentration.

`Cc1c(Cn2ccnc2)n(CCCNS(=O)(=O)c2ccc(F)cc2)c2ccc(C(=O)O)cc12`: the Kb in assay [1] was over 1000 nM. In assay [2], the IC50 turned out to be 15 nM.
`Cc1c(C)n(CCNS(=O)(=O)c2ccc(F)cc2)c2ccc(CCC(=O)O)cc12`: the Kb in assay [3] is 2.51 nM.
For the compound `O=C(O)CCc1ccc2c(c1)c(Cc1ccncc1)cn2CCNS(=O)(=O)c1ccc(F)cc1`, the Kb in assay [4] is 7.59 nM. In addition, the inhibition in assay [5] was 42%.
Turning to `Cc1c(Cn2ccnc2)n(CCNS(=O)(=O)c2ccc(F)cc2)c2ccc(CCC(=O)O)cc12`, the Kb in assay [3] is 138 nM. In assay [2], this compound yielded an IC50 of 135 nM.
In the case of `Cc1c(Cn2ccnc2)n(CCNS(=O)(=O)c2ccc(F)cc2)c2ccc(C(=O)O)cc12`, the Kb in assay [1] was over 1000 nM. In addition, the half-inhibitory concentration (IC50) in assay [2] stood at 20 nM.
For `Cc1c(Cc2cccnc2)c2cc(CCC(=O)O)ccc2n1CCNS(=O)(=O)c1ccc(F)cc1`, the Kb in assay [3] is 0.692 nM. In assay [2], this compound displayed a concentration for half-maximal inhibition (IC50) of 61 nM.
On the same counts, the results for `Cc1c(Cc2ccncc2)c2cc(CCC(=O)O)ccc2n1CCNS(=O)(=O)c1ccc(F)cc1` are 0.0741 nM and 78 nM.
Consider `O=C(O)COc1ccc(CCNS(=O)(=O)c2ccccc2)cc1` [SULOTROBAN], for which the Kb in assay [3] was 81.3 nM.
Turning to `Cc1[nH]c2ccc(CCC(=O)O)cc2c1Cc1ccncc1`, the Kb in assay [4] was 60.3 nM. Besides, the 50% inhibitory concentration (IC50) in assay [2] stood at 22 nM.
Take `Cc1c(Cn2ccnc2)c2cc(CCC(=O)O)ccc2n1CCNS(=O)(=O)c1ccc(F)cc1`: the Kb in assay [3] was 1.58 nM. Moreover, in assay [2], 39 nM corresponded to half-maximal inhibition (IC50).
As to `Cc1c(Cn2ccnc2)n(CCCCNS(=O)(=O)c2ccc(F)cc2)c2ccc(C(=O)O)cc12`, in assay [1], the Kb was over 1000 nM. The same compound gave an IC50 in assay [2] of 39 nM.
